Consider three compounds from US8946198B2, “Estrogen replacement regimen” (priority 2002, dated 2015).

One assay concerns estrogen receptor (ER). The note with it: ovariectomized non-pregnant sheep, myometrium and endometrium; cited from earlier work.
Assay [1] deals with non-pregnant, oophorectomized ewes. Briefly: Uterine blood flow, MAP and heart rate during bolus vs continuous estradiol, first phase. The class given is in vivo, sheep. The method, then:
In the study, fifteen non-pregnant, oophorectomized ewes were implanted with doppler flow probes (Transonic System, Ithaca, N.Y.) on the uterine artery and indwelling catheters were placed in the femoral artery and vein for mean arterial pressure (MAP) measurements and estrogen administration respectively. All animals were oophorectomized. MAP, heart rate (HR) and uterine blood flow (UBF) were recorded for 30 minutes daily for 14 days after at least 60 minutes of adaptation in the recording room. A baseline for each parameter of each sheep was established by averaging values obtained from day 8 through 14 after the last surgery. On day 14, sheep were divided randomly into three groups consisting of 5 animals each. […] The third group (Control) served as a vehicle control. Treatment groups received estrogen from day 15 through 28 and parameters were recorded daily throughout this period. […] It seems that none of the outcome parameters achieved a steady state during the study period.

Assay [2] has the same test system. Briefly: Restoration of the uterine blood flow response after continuous infusion, second phase. The note with it: after continuous infusion 220 μg day 15-28. Format: in vivo, sheep. The method, then: In the second phase of the study an ultra-low dose of estrogen (0.01 μg/Kg) was administered to try to restore the response, which was most diminished in the first phase of the study by continuous infusion. The second phase of the study involved continuous infusion of 220 μg of estradiol from day 15 to 28 in another 15 sheep followed by randomization into 3 groups (See FIG. 1). […] UBF was measured throughout the study.

In a further assay the target is T1, progesterone receptors (Homo sapiens, UniProt P06401).
T1 sequence (P06401 1-933): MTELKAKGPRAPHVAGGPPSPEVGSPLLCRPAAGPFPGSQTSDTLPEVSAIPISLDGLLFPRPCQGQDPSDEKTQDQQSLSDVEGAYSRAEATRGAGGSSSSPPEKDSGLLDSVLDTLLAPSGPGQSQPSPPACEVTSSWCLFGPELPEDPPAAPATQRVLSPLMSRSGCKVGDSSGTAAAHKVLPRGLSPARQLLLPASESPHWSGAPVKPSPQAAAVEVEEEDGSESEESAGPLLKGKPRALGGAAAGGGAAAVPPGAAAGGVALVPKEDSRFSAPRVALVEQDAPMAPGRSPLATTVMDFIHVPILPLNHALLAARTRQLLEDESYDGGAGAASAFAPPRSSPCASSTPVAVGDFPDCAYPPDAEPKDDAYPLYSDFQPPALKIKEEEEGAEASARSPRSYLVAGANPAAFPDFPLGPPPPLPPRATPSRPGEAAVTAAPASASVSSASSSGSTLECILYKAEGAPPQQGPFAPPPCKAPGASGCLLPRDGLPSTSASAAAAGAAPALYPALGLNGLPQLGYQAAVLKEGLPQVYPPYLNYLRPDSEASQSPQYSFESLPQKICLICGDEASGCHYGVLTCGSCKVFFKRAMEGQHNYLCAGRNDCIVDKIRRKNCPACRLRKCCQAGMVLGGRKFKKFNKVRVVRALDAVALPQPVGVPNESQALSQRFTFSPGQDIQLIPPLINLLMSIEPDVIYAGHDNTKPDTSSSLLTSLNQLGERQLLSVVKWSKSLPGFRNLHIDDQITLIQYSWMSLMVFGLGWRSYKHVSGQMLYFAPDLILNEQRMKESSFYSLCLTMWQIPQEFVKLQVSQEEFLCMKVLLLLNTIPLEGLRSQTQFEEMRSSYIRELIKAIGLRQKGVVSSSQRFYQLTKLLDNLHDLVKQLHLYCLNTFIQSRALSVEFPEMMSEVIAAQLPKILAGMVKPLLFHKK
Conditions: cited from earlier work.

The target in assay [3] is T2, human sex-hormone-binding globulin (SHBG) (Homo sapiens, UniProt P04278).
T2 sequence (P04278 30-402): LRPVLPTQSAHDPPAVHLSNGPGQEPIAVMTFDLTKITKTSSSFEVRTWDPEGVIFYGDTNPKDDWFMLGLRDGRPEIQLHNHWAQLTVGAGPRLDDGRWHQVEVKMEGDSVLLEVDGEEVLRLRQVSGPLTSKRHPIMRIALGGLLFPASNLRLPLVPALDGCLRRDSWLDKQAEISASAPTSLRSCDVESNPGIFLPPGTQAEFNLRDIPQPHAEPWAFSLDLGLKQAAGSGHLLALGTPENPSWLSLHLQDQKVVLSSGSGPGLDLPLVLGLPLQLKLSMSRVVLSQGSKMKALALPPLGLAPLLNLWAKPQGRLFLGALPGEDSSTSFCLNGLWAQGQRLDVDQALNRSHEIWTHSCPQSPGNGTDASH
Conditions: cited from earlier work.

[4] abbreviates: continuous iv infusion 220 μg daily.

As for `C[C@]12CC[C@@H]3c4ccc(O)cc4CC[C@H]3[C@@H]1CC[C@@H]2O` [17β-estradiol], in the assay with estrogen receptor (ER), the “effect on ER expression at physiologic concentrations” value was “promoted ER expression” and the “effect on ER expression at supra-physiologic doses” value is “inhibited ER expression”. In assay [1] (setting [4]), the “HR on the first day” value is on record as “increased significantly”, the “HR on the second day” value is “dropped to baseline levels”, the “MAP decrease in the first two days” value came out at 8.6±4% and the “increase in UBF at two days of treatment” value is on record as 1854.2±527.9%. The “UBF for the next 12 days of the study” value in assay [1] (continuous iv infusion 220 μg daily, after day 2 of treatment) is “returned almost to baseline levels”. Moreover, the “MAP during the rest of the study” value in assay [1] (continuous iv infusion 220 μg daily, after the first two days) is “gradually increased to baseline levels”. In addition, in assay [1] (daily single iv bolus 10 μg/kg), the “UBF after 24 hours (before the next bolus)” value is “returned almost to baseline levels”, the “daily intermittent increase in HR” value is listed as 15-20% and the “effect on MAP (mean arterial pressure)” value is recorded as “did not affect MAP”. For the same compound, the “HR decrease to levels below the baseline after 24 hours” value in assay [1] (daily single iv bolus 10 μg/kg, 24 hours after bolus) is on record as 8-10%. Further, in assay [1] (daily single iv bolus 10 μg/kg, start of the gradual increase in the first 4 days, vs baseline), the “increase in UBF (uterine blood flow), start of gradual increase” value is on record as 489±206.5%. The “UBF response to standard bolus doses after 2 days of ultra-low boluses” value in assay [2] (0.01 μg/Kg bolus 2 days, then standard daily bolus (printed 1 μg/Kg) for 3 days (FIG. 4)) is “complete response”. Further, the “UBF response to standard bolus doses after 2 days of standard boluses” value in assay [2] (10 μg/Kg bolus 2 days, then 10 μg/Kg for 3 more days (FIG. 3)) is “no response at all”. For the same compound, the “UBF response to standard bolus doses after 2 days of saline boluses” value in assay [2] (saline 2 days, then 10 μg/Kg bolus daily for 3 days (FIG. 2)) is recorded as “partial response”.

On to `C#C[C@]1(OC(C)=O)CC[C@H]2[C@@H]3CCC4=CC(=NO)CC[C@@H]4[C@H]3CC[C@@]21CC` (mixture of isomers) [norgestimate], for which the “binding to progesterone receptors” value at progesterone receptors is listed as “bind to progesterone receptors”. Further, the “affinity for SHBG” value in assay [3] is “lack of affinity”.

With `C#C[C@]1(O)CC[C@H]2[C@@H]3CCC4=CCCC[C@@H]4[C@H]3C(=C)C[C@@]21CC` [desogestrel, 13-ethyl-11-methylene-18,19-dinor-17 alpha-pregn-4-en-20-yn-17-ol], the “binding to progesterone receptors” value at progesterone receptors is given as “bind to progesterone receptors”. Also, in assay [3], the “affinity for SHBG” value is recorded as “lack of affinity”.
